In BindingDB's records for patent US9598446 (Achillion Pharmaceuticals, 2017):

Target: Complement factor D (Homo sapiens, UniProt P00746)
Experiment: Factor D Assay
Protocol: Human factor D (purified from human serum, Complement Technology, Inc.) at 80 nM final concentration is incubated with test compound at various concentrations for 5 minutes at room temperature in 50 mM Tris, 1M NaCl, pH 7.5. A synthetic substrate Z-L-Lys-SBz1 and DTNB (Ellman's reagent) are added to final concentrations of 100 μM each. The increase in color is recorded at OD405 nm in a microplate in kinetic mode over 30 minutes with 30 second time points in a […]. IC50 values are calculated by non-linear regression from the percentage of inhibition of complement factor D activity as a function of test compound concentration.

Chain of Complement factor D (P00746 whole entry): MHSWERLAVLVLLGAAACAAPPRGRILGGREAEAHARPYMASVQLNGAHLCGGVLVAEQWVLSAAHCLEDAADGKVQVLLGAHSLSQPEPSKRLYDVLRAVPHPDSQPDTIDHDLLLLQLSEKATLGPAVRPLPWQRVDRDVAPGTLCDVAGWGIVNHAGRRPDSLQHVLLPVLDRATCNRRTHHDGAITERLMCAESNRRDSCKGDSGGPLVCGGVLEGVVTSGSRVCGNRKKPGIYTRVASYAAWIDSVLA

CC(=O)c1cn(CC(=O)N2C[C@H](F)C[C@H]2C(=O)Nc2cccc(-c3ccccc3Cl)c2F)c2ccc(N(COC(=O)C(C)(C)C)c3cncnc3)cc12 [US9598446, Compound 15]
IC50: in the range around 5.5 µM
